{"source": "ChEMBL document CHEMBL3102830", "about": "“Involvement of apoptosis and autophagy in the death of RPMI 8226 multiple myeloma cells by two enantiomeric sigma receptor ligands” (Bioorg Med Chem, 2014)", "key": {"RPMI-8226": {"system": "RPMI-8226", "assay": "Cytotoxicity against human RPMI8226 cells assessed as cell viability after 72 hrs by MTT assay", "format": "functional, cell-based", "details": "RPMI-8226, 72 h"}, "[1]": {"assay": "Binding affinity to sigma-2 receptor in human MCF7 cells", "format": "cell-based"}}, "note": "pIC50, pKi: −log10 of the molar value."}
{"smiles": "COc1cccc2c1CCCC2CCCN1CCN(C2CCCCC2)CC1", "note": "(configuration not stated)", "values": [{"measurement": "pIC50", "setting": "RPMI-8226", "result": 5.03}, {"measurement": "pKi", "setting": "[1]", "result": 9.55}]}
